“Also recorded” adds a separate entry of the source.
Tests used:
[1] = Stability to glutathione, half-life by 19F NMR
A-172 = experiment: Cell viability, glioblastoma A-172; type: cell-based; conditions: Homo sapiens, glioblastoma cell line
Protocol: (§1) The anti-cancer efficacy of exemplary compounds of the application were assessed in vitro against different cancer cell lines. […] 1×10^4 cells/well were plated in 96-well assay plates in culture medium. […] In some instances, FBS was removed for periods ranging from 16-24 hours, and re-introduced with test compound addition. After 24 hrs, test compounds and vehicle controls were added to appropriate wells such that the final volume was 100 μl in each well. The cells were cultured for the desired test exposure period (72 hours) at 37° C. and 5% CO2. The assay plates were removed from […] incubator and 20 μl/well of CellTiter-Blue® Reagent was added. The plates were incubated using standard cell culture conditions for 1-4 hours. Afterwards, the plates were shaken for 10 seconds and florescence was recorded at 560/590 nm using a Cytation 3 spectrophotometer. IC50 values were determined using non-linear regression analysis with GraphPad Prism 6.0 (GraphPad Software Inc.).

LN-18 = experiment: Cell viability, glioblastoma LN-18; type: cell-based; conditions: Homo sapiens, glioblastoma cell line
Protocol: as §1

ATCC3034 = experiment: Cell viability, medulloblastoma ATCC3034; type: cell-based; conditions: medulloblastoma cell line
Protocol: The anti-cancer efficacy of exemplary compounds of the application were assessed in vitro against different cancer cell lines. Cell viability was examined following treatment at various concentrations of inhibitor (0.097656-50 μM) using a CellTiter-Blue® cell viability assay. 1×10^4 cells/well were plated in 96-well assay plates in culture medium. All cells were grown in DMEM, IMDM and RPMI-1640 supplemented with 10% fetal bovine serum (FBS). In some instances, FBS was removed for periods ranging from 16-24 hours, and re-introduced with test compound addition. After 24 hrs, test compounds and vehicle controls were added to appropriate wells such that the final volume was 100 μl in each well. The cells were cultured for the desired test exposure period (72 hours) at 37° C. and 5% CO2. The assay plates were removed from […] incubator and 20 μl/well of CellTiter-Blue® Reagent was added. The plates were incubated using standard cell culture conditions for 1-4 hours. Afterwards, the plates were shaken for 10 seconds and florescence was recorded at 560/590 nm using a Cytation 3 spectrophotometer. IC50 values were determined using non-linear regression analysis with GraphPad Prism 6.0 (GraphPad Software Inc.). […]

kinases = experiment: KINOMEscan kinase screen (DiscoverX); type: binding; conditions: 10 μM
Protocol: For most assays, kinase-tagged T7 phage strains were grown in parallel in 24-well blocks in an E. coli host derived from the BL21 strain. E. coli were grown to log-phase and infected with T7 phage from a frozen stock (multiplicity of infection=0.4) and incubated with shaking at 32° C. until lysis (90-150 minutes). The lysates were centrifuged (6,000×g) and filtered (0.2 μm) to remove cell debris. The remaining kinases were produced in HEK-293 cells and subsequently tagged with DNA for qPCR detection. […] The liganded beads were blocked with excess biotin and washed with blocking buffer (SeaBlock (Pierce), 1% BSA, 0.05% Tween 20, 1 mM DTT) to remove unbound ligand and to reduce non-specific phage binding. […] I-1 test compound was prepared as 40× stocks in 100% DMSO and directly diluted into the assay. All reactions were performed in polypropylene 384-well plates in a final volume of 0.02 mL. […] The kinase concentration in the eluates was measured by qPCR. […]
I-1 test compound was tested at 10 μM, and results for primary screen binding interactions are reported as […] where lower numbers indicate stronger hits in the matrix. Ctrl is calculated with the following formula:
(§2) test compound=I-1 negative control=DMSO (100% Ctrl) positive control=control compound (0% Ctrl)

bromodomains = experiment: BROMOscan bromodomain screen (DiscoverX); type: binding; conditions: 10 μM
Protocol: T7 phage strains displaying bromodomains were grown in parallel in 24-well blocks in an E. coli host derived from the BL21 strain. E. coli were grown to log-phase and infected with T7 phage from a frozen stock (multiplicity of infection=0.4) and incubated with shaking at 32° C. until lysis (90-150 minutes). The lysates were centrifuged (5,000×g) and filtered (0.2 μm) to remove cell debris. […] The liganded beads were blocked with excess biotin and washed with blocking buffer (SeaBlock (Pierce), 1% BSA, 0.05 Tween 20, 1 mM DTT) to remove unbound ligand and to reduce non-specific phage binding. […] Test compounds were prepared as 1000× stocks in 100% DMSO and subsequently diluted 1:25 in monoethylene glycol (MEG). The compounds were then diluted directly into the assays such that the final concentrations of DMSO and MEG were 0.1% and 2.4%, respectively. All reactions were performed in polypropylene 384-well plates in a final volume of 0.02 ml. […] The bromodomain concentration in the eluates was measured by qPCR.
I-1 test compound was tested at 10 μM, and results for primary screen binding interactions are reported as ‘% Ctrl,’ where lower numbers indicate stronger hits in the matrix. % Ctrl is calculated with the following formula:
as §2

U87MG = experiment: Cell viability, glioblastoma U87MG; type: cell-based; conditions: Homo sapiens, U-87 MG; glioblastoma cell line
Protocol: as §1

MOLM13 = experiment: CellTiter-Blue cell viability, MOLM13; type: cell-based; conditions: Homo sapiens, MOLM-13
Summary of the method: (§3)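 Cells were seeded at 1×10^4/well, grown 24 h in FBS-supplemented medium, then exposed to compound (0.097656–50 μM) for 72 h at 37° C, 5% CO2. Viability was read by CellTiter-Blue fluorescence (560/590 nm) after 1–4 h reagent incubation, with IC50 derived by non-linear regression.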

[2] = tested on: healthy keratinocyte cells (HaCaT); experiment: CellTiter-Blue cell viability, HaCaT; type: cell-based; conditions: Homo sapiens, non-cancerous, 72 hours
Protocol: The anti-cancer efficacy of exemplary compounds of the application were assessed in vitro against different cancer cell lines. Cell viability was examined following treatment at various concentrations of inhibitor (0.097656-50 μM) using a CellTiter-Blue® cell viability assay. 1×10^4 cells/well were plated in 96-well assay plates in culture medium. All cells were grown in DMEM, IMDM and RPMI-1640 supplemented with 10% fetal bovine serum (FBS). In some instances, FBS was removed for periods ranging from 16-24 hours, and re-introduced with test compound addition. After 24 hrs, test compounds and vehicle controls were added to appropriate wells such that the final volume was 100 μl in each well. The cells were cultured for the desired test exposure period (72 hours) at 37° C. and 5% CO2. The assay plates were removed from 3° C. incubator and 20 μl/well of CellTiter-Blue® Reagent was added. The plates were incubated using standard cell culture conditions for 1-4 hours. Afterwards, the plates were shaken for 10 seconds and florescence was recorded at 560/590 nm using a Cytation 3 spectrophotometer. IC50 values were determined using non-linear regression analysis with GraphPad Prism 6.0 (GraphPad Software Inc.).

MV4-11 = experiment: CellTiter-Blue cell viability, MV4-11; type: cell-based; conditions: Homo sapiens, MV4-11
Summary of the method: as §3

in vitro = conditions: male, mouse
Protocol: The reaction mixture was constituted with 100 mM phosphate buffer, ultra-pure H2O, 5 mM MgCl2 solution, 10 mM NADPH solution and 1 mg/mL S9 fraction. This mixture was then pre-warmed at 37° C. for 5 minutes. […] Aliquots of 50 μL were taken from the reaction solution at 0, 15, 30, 45 and 60 minutes. The aliquoted reaction solutions were stopped by the addition of a mixture of cold methanol and IS (100 nM alprazolam, 200 nM imipramine, 200 nM labetalol and 2 μM ketoprofen). The samples were then centrifuged at 3220 g for 40 minutes. Afterwards, aliquots of 90 μL of the supernatant for each sample was mixed with 90 μL of ultra-pure water and subjected to liquid chromatography tandem mass spectrometry (LC-MS/MS) analysis.
Injection volume was 10 μL.

U118MG = experiment: Cell viability, glioblastoma U118MG; type: cell-based; conditions: Homo sapiens, U-118-MG; glioblastoma cell line
Protocol: as §1

O=S(=O)(c1c(F)c(F)c(F)c(F)c1F)N(Cc1ccc(F)cc1)C1CC1 [Compound I-1, N-cyclopropyl-2,3,4,5,6-pentafluoro-N-(4-fluorobenzyl)benzenesulfonamide]
increase in T1/2 as compared to Batabulin [1]: greater than 7 fold
IC50 (A-172): 7160 nM
IC50 (LN-18): 4920 nM
IC50 (ATCC3034): 800 nM
competitive binding / inhibition of kinase targets (kinases): negligible competitive binding; also recorded: does not inhibit
competitive binding / inhibition of 32 bromodomain targets (bromodomains): negligible competitive binding; also recorded: does not inhibit
IC50 (U87MG): 2870 nM
IC50 (MOLM13; AML cell line, 72 hours): 1500 nM
IC50 (MOLM13; AML, Table 4): 2500 nM
IC50 [2]: 12500 nM
IC50 (MV4-11; AML cell line, 72 hours): 470 nM
IC50 (MV4-11; AML, Table 4): 600 nM
half-life at 2 μM (in vitro; s9): 232 h
microsomal CLint at 2 μM (in vitro; s9): 0.05 µL/min/mg
Remaining Percentage 0 min (in vitro; s9, 0 h, 2 μM): 100.00%
IC50 (U118MG): 10300 nM

From patent US20200277268A1, “PENTAFLUOROPHENYL SULFONAMIDE COMPOUNDS, COMPOSITIONS AND USES THEREOF” (DALRIADA THERAPEUTICS INC., priority 2017, published 2020)
